Reference: patent US20030138432A1, “Selective cellular targeting: multifunctional delivery vehicles, multifunctional prodrugs, use as antineoplastic drugs” (Drug Innovation & Design, Inc., priority 1999, published 2003)
Like-named read-outs stand apart in the source and are kept apart here. Each block holds one compound with its values, some of them ahead of it.

Assays:
[1] = biological target: PKA (Homo sapiens, UniProt P17612); settings: cited from earlier work
[2] = biological target: Protein Kinase C (PKC); settings: cited from earlier work
[3] = tested on: PSMA positive human prostate tumor cells; assay: In vitro growth of PSMA positive prostate tumor cells with a PSMA inhibitor; assay type: cell-based; settings: in the presence of high concentrations of the inhibitor
[4] = biological target: T1, PSMA (Homo sapiens, UniProt Q04609); assay: Inhibition of PSMA, radiolabelled N-acetylaspartylglutamate as substrate, generation of glutamic acid monitored; assay type: biochemical
T1 construct: PSMA was prepared from LNCaP prostatic carcinoma cells as described by Pinto J. T. et al; endogenous in cells; host or cells: LNCaP prostatic carcinoma cells
Protocol: PSMA was prepared from LNCaP prostatic carcinoma cells as described by Pinto J. T. et al., Clinical Cancer Res. Vol.2 p.1445 (1996). The enzyme was assayed employing radiolabelled N-acetylaspartylglutamate as a substrate and monitoring the generation of glutamic acid in the presence of varying concentrations of Compound 1 or 1.1. […] Compound 1.1 inhibited the enzyme 50% at 3.4 nM.

[5] = read-out: IC50 (cytotoxin); cited from earlier work
[6] = biological target: dihydroorotic acid dehydrogenase (Homo sapiens, UniProt Q02127); settings: cited from earlier work
[7] = tested on: IMP dehydrogenase; settings: cited from earlier work

T1 sequence (Q04609 whole entry): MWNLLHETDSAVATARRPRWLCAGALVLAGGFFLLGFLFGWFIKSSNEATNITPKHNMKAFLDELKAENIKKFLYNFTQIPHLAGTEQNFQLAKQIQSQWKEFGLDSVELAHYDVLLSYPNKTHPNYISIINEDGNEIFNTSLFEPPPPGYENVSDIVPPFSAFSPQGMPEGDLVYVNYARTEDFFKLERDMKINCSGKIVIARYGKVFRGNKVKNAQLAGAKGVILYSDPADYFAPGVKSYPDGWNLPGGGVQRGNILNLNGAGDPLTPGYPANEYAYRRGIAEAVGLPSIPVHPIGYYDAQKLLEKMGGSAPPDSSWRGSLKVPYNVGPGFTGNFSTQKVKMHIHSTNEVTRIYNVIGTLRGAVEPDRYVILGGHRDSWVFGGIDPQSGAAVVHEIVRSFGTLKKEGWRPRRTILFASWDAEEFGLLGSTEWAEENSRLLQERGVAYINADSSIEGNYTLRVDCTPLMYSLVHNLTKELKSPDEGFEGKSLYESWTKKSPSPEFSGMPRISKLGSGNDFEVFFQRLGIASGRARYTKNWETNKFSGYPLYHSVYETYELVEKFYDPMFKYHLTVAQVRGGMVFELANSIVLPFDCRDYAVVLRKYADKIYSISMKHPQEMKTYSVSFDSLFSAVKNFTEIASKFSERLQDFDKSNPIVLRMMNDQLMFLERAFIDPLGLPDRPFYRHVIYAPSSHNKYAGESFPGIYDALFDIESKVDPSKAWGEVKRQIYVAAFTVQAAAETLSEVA
dihydroorotic acid dehydrogenase, sequence (Q02127 whole entry): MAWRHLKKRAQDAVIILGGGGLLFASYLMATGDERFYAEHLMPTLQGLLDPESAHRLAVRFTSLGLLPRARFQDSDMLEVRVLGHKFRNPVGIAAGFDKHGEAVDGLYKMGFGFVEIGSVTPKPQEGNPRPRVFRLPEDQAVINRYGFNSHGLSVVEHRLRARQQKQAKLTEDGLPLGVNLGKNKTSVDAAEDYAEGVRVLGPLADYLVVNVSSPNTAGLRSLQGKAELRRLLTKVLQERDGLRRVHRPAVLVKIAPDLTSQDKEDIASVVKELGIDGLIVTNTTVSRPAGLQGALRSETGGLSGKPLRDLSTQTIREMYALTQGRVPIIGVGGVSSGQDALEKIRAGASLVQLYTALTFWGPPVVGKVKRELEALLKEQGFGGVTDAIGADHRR

Compound: 10″-deoxybalanol
- Ki [1]: 4 nM
- Ki [2]: 640 nM

Compound: O=C(O)CCC(CP(=O)(O)O)C(=O)O (stereo not shown) [2-(phosphonomethyl)-pentanedioic acid]
- growth of tumor cells in vitro [3]: readily grow

Compound: O=C(O)CCC(CP(=O)(O)CCC(=O)NC(CCCCNC(=S)Nc1ccc(-c2c3ccc(=O)cc-3oc3cc(O)ccc23)c(C(=O)O)c1)C(=O)NCCc1ccc(O)cc1)C(=O)O (stereo not shown) [Compound 1.1]
- IC50 [4]: 3.4 nM
- Ki [4]: 3.4 nM

- IC50 ([4]; PSMA prepared from LNCaP prostatic carcinoma cells, radiolabelled N-acetylaspartylglutamate substrate, read-out: concentration that inhibited the enzyme 50%): 20 nM
- Ki ([4]; PSMA prepared from LNCaP prostatic carcinoma cells, read-out: Ki for inhibition of PSMA): 20 nM
Compound: O=C(O)CCC(OP(=O)(O)OCCCOCCNC(=O)CCCCCNS(=O)(=O)c1ccc(C2=c3cc4c5c(c3Oc3c2cc2c6c3CCCN6CCC2)CCC[N+]=5CCC4)c(S(=O)(=O)[O-])c1)C(=O)O (stereo not shown) [Compound 1]

Compound: COc1c(C)cc2c(c1O)C1C3Cc4c(OC(C)=O)c(C)c5c(c4C(CN4C(=O)c6ccccc6C4=O)N3C(C#N)C(C2)N1C)OCO5 (stereo not shown) [Phthalascidin]
- IC50 [5]: 0.1 to 1 nM

Compound: Cc1c(-c2ccc(-c3ccccc3F)cc2)nc2ccc(F)cc2c1C(=O)O [brequinar]
- level at which dihydroorotic acid dehydrogenase is inhibited [6]: nonamolar levels

Compound: COc1c(C)c2c(c(O)c1C/C=C(\C)CCC(=O)O)C(=O)OC2 [mycophenolic acid]
- level at which IMP dehydrogenase is inhibited [7]: nanomolar levels
